Where “and” joins values, the source holds several entries; their conditions need not be identical. Identical values can stand only once.
Experiment: Phase 1 single ascending dose (SAD) and food effect pharmacokinetics
Type: in vivo, human
Experimental: A two-part randomized, double-blind, placebo-controlled Phase 1 trial was conducted to assess the safety, tolerability, PK and PD of SRP-001 ascending doses (Quotient Sciences, Miami, FL USA). The study was conducted in accordance with the International Council for Harmonisation of Technical Requirements for Pharmaceuticals for Human Use (ICH), Guideline for GCP: Consolidated Guidance (E6), and applicable regulatory requirements(s) including clinical research guidelines established by the Basic Principles defined in the U.S. 21 CFR Parts 50, 56, and 312 and the principles enunciated in the Declaration of Helsinki (revised version Fortaleza 2013). The clinical protocol and informed consent form were reviewed and approved by an Institutional Review Board (IRB; Advarra IRB, 6100 Merriweather Drive, Suite 600, Columbia, MD 21044; Quotient Protocol No. SRP-101 and Quotient Sciences Study No. QSC205130; Quotient Sciences Miami, 3898 NW 7th Street, Miami, FL 33126.). The study comprises a SAD (Part 1) assessment that includes a food effect assessment that contributes data to inform a subsequent MAD (Part 2) dose-ranging study. Safety measurements were collected throughout the study for all subjects. Blood samples were collected to determine the PK parameters of SRP-001. ClinicalTrials.gov identifier: NCT05484414
Fasted and Fed Dosing: NHVs were dosed in the fasted state. The calorie/fat content of meals was not required to be controlled. Subjects were provided with a standardized menu. Subjects were provided with a light snack and then fasted from all food and drink (except water) for a minimum of 10 h on the day prior to dosing until approximately 4 h post-dose, at which time lunch was provided. An evening meal was provided at approximately 10 h post-dose/post-morning dose and an evening snack at approximately 14 h post-morning dose. Food effect was studied in the cohort receiving 900 mg SRP-001 in the fed state. A standard high-fat breakfast was given 30 min before dosing. On Day −1, these NHVs were provided with a light snack and fasted from all food and drink (except water) until the following morning, when they were provided with a standard high-fat breakfast. The breakfast had to be consumed over a maximum period of 25 min, with dosing occurring 30 min after the start of breakfast. Subjects were encouraged to eat their meal evenly over the 25 min period. It was acknowledged that some subjects took less time to eat, but dosing still occurred 30 min after the start of breakfast. Subjects had to consume at least 90% to be eligible for dosing. The start and stop time and percentage of the breakfast consumed were recorded in the source. Acceptable deviations for the pre-dose meal from the nominal time point were: 1) Pre-dose meal was provided within +5 min of the nominal time point, 2) Lunch was provided at approximately 4 h post-dose, 3) an evening meal at approximately 10 h post-dose, and 4) an evening snack at approximately 14 h post-dose. On subsequent days, meals were provided at appropriate times.
SRP-001 administration and PK/PD determination: Following a single administration of 300-2,000 mg SRP-001 oral suspension in the fasted state (and in cohort 4, 900 mg in the fed state), plasma concentrations of SRP-001 were observed from the first sampling timepoint of 1 h post-dose for all subjects.

Q: Which “AUC(0-48), geometric mean” value (300 mg fasted) does the source give for `CCN(CC)C(=O)c1ccccc1S(=O)(=O)NCC(=O)Nc1ccc(O)cc1` [SRP-001, N,N-diethyl-2-[[2-(4-hydroxyanilino)-2-oxo-ethyl]sulfamoyl]benzamide] here?
A: 1630 ng·h/mL

Q: What about the “AUC(0-inf), geometric mean” value (300 mg fasted) of the same compound?
A: 1630 ng·h/mL

Q: What about the “T1/2, geometric mean” value (300 mg fasted) of the same compound?
A: 2.38 h

Q: And the “dose dependence of geometric mean Cmax and AUC(0-∞)” value (300 mg to 2,000 mg)?
A: dose-proportional or super-proportional increase

Q: What about the “AUC(0-24), geometric mean” value (600 mg fasted) of the same compound?
A: 5660 ng·h/mL

Q: And the “AUC(0-inf), geometric mean” value (600 mg fasted)?
A: 5840 ng·h/mL

Q: And the “Cmax, geometric mean” value (600 mg fasted)?
A: 1740 ng/mL

Q: What about the “T1/2, geometric mean” value (600 mg fasted) of the same compound?
A: 5.0 h and 5.04 h

Q: What about the “AUC(0-24), geometric mean” value (900 mg fasted) of the same compound?
A: 6870 ng·h/mL

Q: What about the “AUC(0-inf), geometric mean” value (900 mg fasted) of the same compound?
A: 6970 ng·h/mL

Q: And the “Cmax, geometric mean” value (900 mg fasted)?
A: 2700 ng/mL

Q: And the “T1/2, geometric mean” value (900 mg fasted)?
A: 3.26 h

Q: And the “AUC(0-24), geometric mean” value (900 mg fed)?
A: 6250 ng·h/mL

Q: And the “AUC(0-inf), geometric mean” value (900 mg fed)?
A: 5910 ng·h/mL

Q: And the “Cmax, geometric mean” value (900 mg fed)?
A: 1200 ng/mL

Q: What about the “T1/2, geometric mean” value (900 mg fed) of the same compound?
A: 3.79 h

Q: And the “relative bioavailability based on geometric mean AUC(0-24)” value (900 mg fed vs fasted)?
A: 99.2%

Q: What about the “relative bioavailability based on geometric mean AUC(0-inf)” value (900 mg fed vs fasted) of the same compound?
A: 101%

Q: What about the “relative bioavailability based on geometric mean AUC(0-last)” value (900 mg fed vs fasted) of the same compound?
A: 98.4%

Q: And the “relative bioavailability based on geometric mean Cmax” value (900 mg fed vs fasted)?
A: 48.4%

Q: What about the “AUC(0-24), geometric mean” value (2000 mg fasted) of the same compound?
A: 18900 ng·h/mL

Q: And the “AUC(0-inf), geometric mean” value (2000 mg fasted)?
A: 19600 ng·h/mL

Q: And the “Cmax, geometric mean” value (2000 mg fasted)?
A: 4590 ng/mL

Q: What about the “T1/2, geometric mean” value (2000 mg fasted) of the same compound?
A: 5.96 h

Q: What about the “geometric mean AUC(0-24) as share of the exposure limits defined in the protocol” value (2000 mg fasted) of the same compound?
A: 31%

Q: What about the “geometric mean Cmax as share of the exposure limits defined in the protocol” value (2000 mg fasted) of the same compound?
A: 34%

Q: And the “increase of geometric mean AUC(0-24)” value (dose from 300 to 600 mg)?
A: 3.5 fold

Q: And the “increase of geometric mean Cmax” value (dose from 300 to 600 mg)?
A: 2.6 fold

Q: What about the “increase of geometric mean AUC(0-24)” value (dose from 600 to 900 mg) of the same compound?
A: 1.2 fold

Q: What about the “increase of geometric mean Cmax” value (dose from 600 to 900 mg) of the same compound?
A: 1.6 fold

Q: And the “increase of geometric mean AUC(0-24)” value (dose from 900 to 2000 mg)?
A: 2.8 fold

Q: And the “increase of geometric mean Cmax” value (dose from 900 to 2000 mg)?
A: 1.7 fold
